Data reported in ChEMBL document CHEMBL3745664, “Synthesis, biological evaluation and QSAR studies of diarylpentanoid analogues as potential nitric oxideinhibitors” (Medchemcomm, 2015).

Tests used:
[1] = tested on: RAW264.7; experiment: Antiinflammatory activity in mouse RAW264.7 cells assessed as inhibition of LPS/IFN-gamma-stimulated nitric oxide production after 17 hrs by Griess assay; type: functional, cell-based; settings: RAW264.7, 17 h
[2] = tested on: RAW264.7; experiment: Antiinflammatory activity in mouse RAW264.7 cells assessed as inhibition of LPS/IFN-gamma-stimulated nitric oxide production at 50 uM after 17 hrs by Griess assay; type: functional; settings: RAW264.7, 17 h
[3] = tested on: RAW264.7; experiment: Cytotoxicity against mouse RAW264.7 cells by MTT assay; type: cell-based
[4] = Chemical stability of the compound in phosphate buffer at 20 uM at pH 12.7 at 25 degC by UV-visible spectrophotometric analysis; type: physicochemical; settings: pH 12.7, 20 µM
[5] = Chemical stability of the compound in phosphate buffer at 20 uM at pH 7 at 25 degC by UV-visible spectrophotometric analysis; type: physicochemical; settings: pH 7, 20 µM
[6] = Chemical stability of the compound in phosphate buffer at 20 uM at pH 2.4 at 25 degC by UV-visible spectrophotometric analysis; type: physicochemical; settings: pH 2.4, 20 µM

O=C(/C=C/C=C/c1ccccc1)c1ccccc1
IC50 ([1]; read-out: IC50): 44.6 µM
IC50 ([1]; read-out: pIC50 (converted)): 44.6 µM
inhibition at 50 µM [2]: 66.8%
IC50 [3]: 44.3 µM

O=C(/C=C/C=C/c1ccccc1)c1cc(Cl)ccc1O
inhibition at 50 µM [2]: < 10%

COc1ccc(/C=C/C=C/C(=O)c2cc(Cl)ccc2O)cc1
inhibition at 50 µM [2]: 26.4%

O=C(/C=C/C=C/c1ccc(Cl)cc1)c1cc(Cl)ccc1O
inhibition at 50 µM [2]: < 10%

O=C(/C=C/C=C/c1ccccc1)c1ccccc1O
inhibition at 50 µM [2]: < 10%

O=C(/C=C/C=C/c1ccccc1)c1ccc(F)cc1
inhibition at 50 µM [2]: 33.1%

COc1ccc(/C=C/C=C/C(=O)c2ccc[nH]2)cc1
IC50 ([1]; read-out: IC50): 57.4 µM
IC50 ([1]; read-out: pIC50 (converted)): 57.4 µM
inhibition at 50 µM [2]: 95.8%
IC50 [3]: > 100 µM

COc1ccc(/C=C/C=C/C(=O)c2cccs2)cc1
IC50 ([1]; read-out: IC50): 47.9 µM
IC50 ([1]; read-out: pIC50 (converted)): 47.9 µM
inhibition at 50 µM [2]: 69.6%
IC50 [3]: 68.5 µM

COc1cc(/C=C/C=C/C(=O)c2ccc(F)cc2)cc(OC)c1O
IC50 ([1]; read-out: IC50): 39.3 µM
IC50 ([1]; read-out: pIC50 (converted)): 39.3 µM
inhibition at 50 µM [2]: 76.7%
IC50 [3]: 5 µM

O=C(/C=C/C=C/c1ccccc1)c1cccc(O)c1
IC50 ([1]; read-out: IC50): 26.1 µM
IC50 ([1]; read-out: pIC50 (converted)): 26.1 µM
inhibition at 50 µM [2]: 104%
IC50 [3]: 48.7 µM

COc1ccc(/C=C/C=C/C(=O)c2ccc(O)cc2F)cc1
IC50 ([1]; read-out: IC50): 21.8 µM
IC50 ([1]; read-out: pIC50 (converted)): 21.8 µM
inhibition at 50 µM [2]: 102%
IC50 [3]: 60.3 µM

COc1ccc(C(=O)/C=C/C=C/c2ccccc2)cc1
IC50 ([1]; read-out: IC50): 71.2 µM
IC50 ([1]; read-out: pIC50 (converted)): 71.1 µM
inhibition at 50 µM [2]: 51.1%
IC50 [3]: > 100 µM

COc1cc(/C=C/C=C/C(=O)c2ccccc2)cc(OC)c1O
IC50 ([1]; read-out: IC50): 42 µM
IC50 ([1]; read-out: pIC50 (converted)): 42 µM
inhibition at 50 µM [2]: 64.1%
IC50 [3]: 28.7 µM

COc1ccc(/C=C/C=C/C(=O)c2ccc(OC)c(O)c2)cc1
IC50 ([1]; read-out: IC50): 16.3 µM
IC50 ([1]; read-out: pIC50 (converted)): 16.3 µM
inhibition at 50 µM [2]: 100%
IC50 [3]: 28.4 µM

CN(C)c1ccc(/C=C/C=C/C(=O)c2ccc(F)cc2)cc1
IC50 ([1]; read-out: IC50): 63.8 µM
IC50 ([1]; read-out: pIC50 (converted)): 63.8 µM
inhibition at 50 µM [2]: 71.5%
IC50 [3]: > 100 µM

COc1ccc(/C=C/C=C/C(=O)c2ccc(OC)cc2)cc1
inhibition at 50 µM [2]: 41.6%

O=C(/C=C/C=C/c1ccccc1)c1cc(Cl)cc(Cl)c1O
inhibition at 50 µM [2]: 19.6%

O=C(/C=C/C=C/c1ccc(O)cc1)c1ccc(F)cc1
IC50 ([1]; read-out: IC50): 14.8 µM
IC50 ([1]; read-out: pIC50 (converted)): 14.8 µM
inhibition at 50 µM [2]: 110%
IC50 [3]: 45.5 µM

COc1ccc(C(=O)/C=C/C=C/c2ccc(N(C)C)cc2)cc1
IC50 ([1]; read-out: IC50): 77.4 µM
IC50 ([1]; read-out: pIC50 (converted)): 77.4 µM
inhibition at 50 µM [2]: 54.5%
IC50 [3]: > 100 µM

CN(C)c1ccc(/C=C/C=C/C(=O)c2cccs2)cc1
inhibition at 50 µM [2]: 32.4%

COc1ccc(C(=O)/C=C/C=C/c2ccc(O)cc2)c(O)c1
IC50 ([1]; read-out: IC50): 27.1 µM
IC50 ([1]; read-out: pIC50 (converted)): 27.1 µM
inhibition at 50 µM [2]: 93.4%
IC50 [3]: > 100 µM

COc1ccc(/C=C/C=C/C(=O)c2ccc(OC)cc2OC)cc1
inhibition at 50 µM [2]: < 10%

COc1ccc(/C=C/C=C/C(=O)c2ccc(O)c(Cl)c2)cc1
IC50 ([1]; read-out: IC50): 23.5 µM
IC50 ([1]; read-out: pIC50 (converted)): 23.4 µM
inhibition at 50 µM [2]: 98.2%
IC50 [3]: 67.6 µM

O=C(/C=C/C=C/c1ccc(O)cc1)c1ccc(O)cc1
IC50 ([1]; read-out: IC50): 16.4 µM
IC50 ([1]; read-out: pIC50 (converted)): 16.4 µM
inhibition at 50 µM [2]: 102%
IC50 [3]: > 100 µM

COc1ccc(/C=C/C=C/C(=O)c2cc(C)oc2C)cc1
IC50 ([1]; read-out: IC50): 39.8 µM
IC50 ([1]; read-out: pIC50 (converted)): 45.7 µM
inhibition at 50 µM [2]: 59.7%
IC50 [3]: > 100 µM

Cc1ccc(C(=O)/C=C/C=C/c2ccccc2)s1
IC50 ([1]; read-out: IC50): 68.6 µM
IC50 ([1]; read-out: pIC50 (converted)): 68.5 µM
inhibition at 50 µM [2]: 52.6%
IC50 [3]: > 100 µM

Cc1cc(C(=O)/C=C/C=C/c2ccccc2)c(C)o1
IC50 ([1]; read-out: IC50): 59 µM
IC50 ([1]; read-out: pIC50 (converted)): 58.9 µM
inhibition at 50 µM [2]: 84.6%
IC50 [3]: > 100 µM

O=C(/C=C/C=C/c1ccccc1)c1cc(Br)ccc1O
inhibition at 50 µM [2]: < 10%

COc1ccc(/C=C/C=C/C(=O)c2ccc(F)cc2)cc1
inhibition at 50 µM [2]: 40%

O=C(/C=C/C=C/c1ccc(Cl)cc1)c1ccc(Cl)cc1
inhibition at 50 µM [2]: 31.2%

COc1ccc(/C=C/C=C/C(=O)c2ccccc2)cc1
IC50 ([1]; read-out: IC50): 45.8 µM
IC50 ([1]; read-out: pIC50 (converted)): 45.8 µM
inhibition at 50 µM [2]: 77.4%
IC50 [3]: > 100 µM

COc1ccc(C(=O)/C=C/C=C/c2ccc(Cl)cc2)cc1
IC50 ([1]; read-out: IC50): 70.5 µM
IC50 ([1]; read-out: pIC50 (converted)): 70.5 µM
inhibition at 50 µM [2]: 45.4%
IC50 [3]: 80.2 µM

COc1ccc(/C=C/C=C/C(=O)c2ccco2)cc1
IC50 ([1]; read-out: IC50): 27.5 µM
IC50 ([1]; read-out: pIC50 (converted)): 27.5 µM
inhibition at 50 µM [2]: 61.5%
IC50 [3]: 76.6 µM

COc1ccc(/C=C/C=C/C(=O)c2cc(OC)c(O)c(OC)c2)cc1
IC50 ([1]; read-out: IC50): 21.5 µM
IC50 ([1]; read-out: pIC50 (converted)): 21.4 µM
inhibition at 50 µM [2]: 89.4%
IC50 [3]: 58.6 µM

CN(C)c1ccc(/C=C/C=C/C(=O)c2ccco2)cc1
IC50 ([1]; read-out: IC50): 116 µM
inhibition at 50 µM [2]: 56.9%
IC50 [3]: > 100 µM

COc1ccc(/C=C/C=C/C(=O)c2ccc(C)s2)cc1
inhibition at 50 µM [2]: 41.7%

COc1ccc(/C=C/C=C/C(=O)c2cc(C)sc2C)cc1
inhibition at 50 µM [2]: 44.8%

Cc1ccc(/C=C/C=C/C(=O)c2ccccc2)cc1
inhibition at 50 µM [2]: 73.7%

CN(C)c1ccc(/C=C/C=C/C(=O)c2ccccc2)cc1
IC50 ([1]; read-out: IC50): 73.6 µM
IC50 ([1]; read-out: pIC50 (converted)): 73.5 µM
inhibition at 50 µM [2]: 51.2%
IC50 [3]: > 100 µM

O=C(/C=C/C=C/c1ccc(O)cc1)c1ccc(O)cc1O
IC50 ([1]; read-out: IC50): 27.2 µM
IC50 ([1]; read-out: pIC50 (converted)): 27.2 µM
inhibition at 50 µM [2]: 82.1%
IC50 [3]: > 100 µM

COc1ccc(/C=C/C=C/C(=O)c2cc(Cl)cc(Cl)c2O)cc1
inhibition at 50 µM [2]: < 10%

CN(C)c1ccc(/C=C/C=C/C(=O)c2ccccc2O)cc1
inhibition at 50 µM [2]: 16.4%

Cc1ccc(C(=O)/C=C/C=C/c2ccc(O)cc2)s1
IC50 ([1]; read-out: IC50): 10.2 µM
IC50 ([1]; read-out: pIC50 (converted)): 10.2 µM
inhibition at 50 µM [2]: 103%
IC50 [3]: 28.3 µM
Stability [4]: Stable
Stability [5]: Stable
Stability [6]: Stable

COc1ccc(/C=C/C=C/C(=O)c2ccc(C)cc2)cc1
inhibition at 50 µM [2]: 42.2%

O=C(/C=C/C=C/c1ccccc1)c1ccc(Cl)cc1
inhibition at 50 µM [2]: < 10%

COc1cc(/C=C/C(=O)CC(=O)/C=C/c2ccc(O)c(OC)c2)ccc1O [CURCUMIN]
inhibition at 50 µM [2]: 99.3%
IC50 [3]: > 100 µM
Stability [4]: Stable
Stability [5]: Unstable
Stability [6]: Stable
